Patent publication US20210253520A1, “POLYMYXIN-BASED COMPOUNDS USEFUL AS ANTIBACTERIAL AGENTS” (UNIVERSITAT DE BARCELONA, priority 2018, published 2021)
≈ marks a conversion by molar mass, not a printed value. Read-outs that look alike come from different tables or passages of the source. Numbered stars: 1 amine (or outer) side, 2 acyl side, 3 side chain; on linkers, the order of the positions; unused ones are H or OH. Bridge positions count the residues as written; N and C are the ends. Square brackets hold non-standard residues; d marks the D form. Peptide text beside a SMILES is read from it. * marks the point of attachment. X1 = C[C@@H](O)[C@@H](CS[*:1])N[*:2]; Hica(2S) = CC(C)C[C@H](O)C(=O)O; Octanoyl = CCCCCCCC(=O)*; Dab = NCC[C@H](N)C(=O)O

Tests used:
[1] = test system: P. aeruginosa ATCC 27853; assay: microbe, parasite or virus in culture; type: cell-based; settings: for MIC: resistance profile of strain P. aeruginosa ATCC 27853, Table 3
Method: (§1) The antibacterial activity of the polymyxin lipopeptides was measured at ISGlobal following the microdilution test to determine the Minimal Inhibitory Concentrations (MIC) in sterile 96-well polypropilene plates. The concentration range was 32 a […] in Iso-Sensitest broth (Oxoid, ThermoFisher). The results were carried out in triplicate and the highest MIC is the one shown. Bacterial strains were grown in blood agar plates at 37° C. for 17 h. Fresh colonies were used to prepare a McFarland 0.5 solution that was finally added to the plates at 1 to 100 dilution
(§2) Samples of sensitive and multi-drug resistant bacteria were: E. coli ATCC 25922 E. coli MB1410; K. pneumoniae MB674; P. aeruginosa ATCC 27853; P. aeruginosa 36A.

[2] = test system: E. coli MB1410; assay: microbe, parasite or virus in culture; type: cell-based; settings: for MIC: Escherichia coli
Method: as §1, §2

[3] = test system: E. coli ATCC 25922; assay: microbe, parasite or virus in culture; type: cell-based
Method: as §1, §2

[4] = test system: P. aeruginosa 36A; assay: microbe, parasite or virus in culture; type: cell-based; settings: for MIC: resistance profile of strain P. aeruginosa 36A, Table 3
Method: as §1, §2

[5] = test system: K. pneumoniae MB674; type: cell-based; settings: for MIC: resistance profile of strain K. pneumoniae MB674, Table 3
Method: as §1, §2

[6] = test system: Swiss CD-1 female mice; assay: Nephrotoxicity study, histopathological scoring of kidney lesions; type: in vivo; design: key to Group Score (GS): mean of per-animal summed 0-4 lesion scores; higher = more nephrotoxic
Method: Swiss CD-1 female mice weighing approximately 20-24 g (JANVIER Labs) were used, housed in an individually ventilated cage system under specific pathogen-free conditions, and water and food supplied ad libitum. This study plan and the conduct of the study were subjected to review by the Scientific Park of Barcelona Ethical Review Process with the current study procedure Code CEEA (AR) 9377-P2. Mice were administered at a dose of 12 mg/Kg every 2 hours for a total of 6 administrations (total dose 72 mg/Kg), unless otherwise stated. After 20 h, animals were anesthesized with isoflurane, kidneys extracted and prepared for histopathological evaluation, and finally animales were sacrificed. Kidney lesions (tubule dilation, necrosis, tubule casts, cell vacuolization, cell desquamation, and cell swelling) were quantified by microscopical observation (see for instance, Roberts, ACS Infect. Dis., 2015, 1, 568). Each one of these parameters was scored with values from 0 to 4 for each animal, as a global result of observations in kidney. Partial scores have been added up to obtain a final score for each animal (Animal Score, AS). The mean of animal score has been obtained to define the Group Score (GS). The higher the score, the more nephrotoxic a compound is. The nephrotoxicity score has been determined as according to the following table of approximated values: […]

[7] = Pseudomonas aeruginosa, ATCC27853, read-out: MIC
[8] = resistance profile of strain E. coli MB1410, Table 3, read-out: MIC
[9] = Escherichia coli, ATCC25922, resistance profile of strain E. coli ATCC 25922, Table 3, read-out: MIC
[10] = Pseudomonas aeruginosa, read-out: MIC
[11] = resistance profile of strain E. coli ATCC 25922, Table 3
[12] = Table 8, 12 mg/Kg every 2 hours × 6 sc, total 72 mg/Kg, 3 mice

NCC[C@H](O)C(=O)N[C@@H]1C[C@H](N)[C@@H](O[C@H]2O[C@H](CN)[C@@H](O)[C@H](O)[C@H]2O)[C@H](O)[C@H]1O[C@H]1O[C@H](CO)[C@@H](O)[C@H](N)[C@H]1O [Ak, Amikacin] showed an MIC [1, 7] of 4 µg/mL (≈ 6.83 µM), an MIC [2, 8] of 6 µg/mL (≈ 10.2 µM) and an MIC [3, 9] of 2 µg/mL (≈ 3.42 µM). The MIC [4, 10] was 2 µg/mL (≈ 3.42 µM).

In the case of CC(C)(O/N=C(\C(=O)N[C@@H]1C(=O)N2C(C(=O)[O-])=C(C[n+]3ccccc3)CS[C@H]12)c1csc(N)n1)C(=O)O [CAZ, Ceftacidime], the MIC [1] is reported as 0.5 µg/mL (≈ 0.915 µM) and the MIC [3, 11] is reported as 0.25 µg/mL (≈ 0.457 µM).

CO/N=C(\C(=O)N[C@@H]1C(=O)N2C(C(=O)O)=C(COC(C)=O)CS[C@H]12)c1csc(N)n1 [CTX, Cefotaxime] gave an MIC [3, 9] of 0.5 µg/mL (≈ 1.1 µM).

Compound O=C(O)c1cn(C2CC2)c2cc(N3CCNCC3)c(F)cc2c1=O [Cip, Ciprofloxacin] has an MIC [1, 7] of 0.25 µg/mL (≈ 0.754 µM) and an MIC [3, 9] of 0.06 µg/mL (≈ 0.181 µM).

CCCCCCCC(=O)N[C@@H](CCN)C(=O)N[C@H](C(=O)N[C@@H](CCN)C(=O)N[C@H]1CSSC[C@H]([C@@H](C)O)NC(=O)[C@H](CCN)NC(=O)[C@H](CCN)NC(=O)[C@H](CC(C)C)OC(=O)[C@@H](CC(C)C)NC(=O)[C@H](CCN)NC1=O)[C@@H](C)O [Example 7, Octanoyl-Dab-Thr-Dab-cyclo(S-S)[Cys-Dab-DLeu-OLe-Dab-Dab-Ttr]] (Octanoyl-[Dab]T[Dab]C[Dab][dL][Hica(2S)][Dab][Dab]; linker 4-C via X1) was tested, and the “antibacterial activity (MIC)” value ([5]; MB674) was 1 µg/mL, the “antibacterial activity (MIC)” value ([1]; ATCC 27853) was 2 µg/mL and the “antibacterial activity (MIC)” value ([2]; MB1410) was 4 µg/mL. The “antibacterial activity (MIC)” value ([3]; ATCC 25922) was 8 µg/mL and the “antibacterial activity (MIC)” value ([4]; 36A) was 4 µg/mL.

Compound CO/N=C(\C(=O)N[C@@H]1C(=O)N2C(C(=O)[O-])=C(C[N+]3(C)CCCC3)CS[C@H]12)c1csc(N)n1 [FEP, Cefepime] has an MIC [1, 7] of 1 µg/mL (≈ 2.08 µM), an MIC [3, 9] of 0.06 µg/mL (≈ 0.125 µM) and an MIC [4, 10] of 8 µg/mL (≈ 16.6 µM).

With C[C@@H](O)[C@H]1C(=O)N2C(C(=O)O)=C(SCCN=CN)C[C@H]12 [IP, Imipenem] the MIC [1, 7] was 2 µg/mL (≈ 6.68 µM), the MIC ([2]; MB1410) was 0.125 µg/mL (≈ 0.418 µM) and the MIC ([3]; Escherichia coli, ATCC25922) was 0.125 µg/mL (≈ 0.418 µM).

C[C@H]1COc2c(N3CCN(C)CC3)c(F)cc3c(=O)c(C(=O)O)cn1c23 [Lev, Levofloxacin] gave an MIC [1, 7] of 1.5 µg/mL (≈ 4.15 µM) and an MIC [3, 9] of 0.094 µg/mL (≈ 0.26 µM).

Compound C[C@@H](O)[C@H]1C(=O)N2C(C(=O)O)=C(S[C@@H]3CN[C@H](C(=O)N(C)C)C3)[C@H](C)[C@H]12 [MP, Meropenem] has an MIC [1, 7] of 0.38 µg/mL (≈ 0.991 µM), an MIC [2, 8] of 0.094 µg/mL (≈ 0.245 µM) and an MIC ([3]; Escherichia coli, ATCC25922) of 0.125 µg/mL (≈ 0.326 µM).

For CN(C)c1cc(NC(=O)CNC(C)(C)C)c(O)c2c1C[C@H]1C[C@H]3[C@H](N(C)C)C(O)=C(C(N)=O)C(=O)[C@@]3(O)C(O)=C1C2=O [TG, Tigecicline], the MIC [5] was 0.5 µg/mL (≈ 0.854 µM), the MIC [1] was 12 µg/mL (≈ 20.5 µM) and the MIC [3, 11] was 0.5 µg/mL (≈ 0.854 µM). It also gave an MIC [4] of 12 µg/mL (≈ 20.5 µM).

Work on Gentamicin [Gm] yielded an MIC [5] of 2 µg/mL, an MIC [1] of 1.5 µg/mL and an MIC [3, 11] of 0.5 µg/mL.

“Nonanoyl-Dab-Thr-Dab-cyclo(S-S)[Cys-Dab-DPhe-Leu-Dab-Dab-Cys] [compound 1]” was tested, and the “AS, Partial AS” value [6, 12] was 12, the “Cell vacuolization, Partial AS” value [6, 12] was 0 and the “Cloudy swelling, Partial AS” value [6, 12] was 6. For the same compound, the “Group Score (GS)” value [6, 12] was 4, the Mice found dead [6, 12] was “none” and the “Tubular casts, Partial AS” value [6, 12] was 0. For the same compound, the “Tubular dilaion, Partial AS” value [6, 12] was 6, the “Tubular necrosis, Partial AS” value [6, 12] was 0 and the “nephrotoxicity in mice, in words” value ([6]; nephrotoxicity tests carried out in mice, statement of the background) was “showed nephrotoxicity”.
